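GI50 marks 50% less growth. TGI: total growth inhibition.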
How the values were obtained:
Experiment in all cases: DTP human tumour cell line panel, 384-well format
A498 renal = test system: A498 renal
A549 NSCLC = test system: A549 NSCLC
ACHN renal = test system: ACHN renal
BT-549 breast = test system: BT-549 breast
CAKI-1 renal = test system: CAKI-1 renal
COLO 205 colon = test system: COLO 205 colon
DU-145 prostate = test system: DU-145 prostate
EKVX NSCLC = test system: EKVX NSCLC
HCC-2998 colon = test system: HCC-2998 colon
HCT-116 colon = test system: HCT-116 colon
HCT-15 colon = test system: HCT-15 colon
HL-60(TB) leukemia = test system: HL-60(TB) leukemia
HOP-62 NSCLC = test system: HOP-62 NSCLC
HOP-92 NSCLC = test system: HOP-92 NSCLC
HS 578T breast = test system: HS 578T breast
HT29 colon = test system: HT29 colon
IGROV1 ovarian = test system: IGROV1 ovarian
KM12 colon = test system: KM12 colon
LOX IMVI melanoma = test system: LOX IMVI melanoma
M14 melanoma = test system: M14 melanoma
MALME-3M melanoma = test system: MALME-3M melanoma
MCF7 breast = test system: MCF7 breast
MDA-MB-231 breast = test system: MDA-MB-231 breast
MDA-MB-435 melanoma = test system: MDA-MB-435 melanoma
MDA-MB-468 breast = test system: MDA-MB-468 breast
MOLT-4 leukemia = test system: MOLT-4 leukemia
NCI-H226 lung = test system: NCI-H226 lung
NCI-H23 lung = test system: NCI-H23 lung
NCI-H322M lung = test system: NCI-H322M lung
NCI-H460 NSCLC = test system: NCI-H460 NSCLC
NCI-H522 lung = test system: NCI-H522 lung
NCI/ADR-RES ovarian = test system: NCI/ADR-RES ovarian
OVCAR-3 ovarian = test system: OVCAR-3 ovarian
OVCAR-4 ovarian = test system: OVCAR-4 ovarian
OVCAR-5 ovarian = test system: OVCAR-5 ovarian
OVCAR-8 ovarian = test system: OVCAR-8 ovarian
PC-3 prostate = test system: PC-3 prostate
RPMI-8226 leukemia = test system: RPMI-8226 leukemia
RXF 393 renal = test system: RXF 393 renal
SF-268 CNS = test system: SF-268 CNS
SF-295 CNS = test system: SF-295 CNS
SF-539 CNS = test system: SF-539 CNS
SK-MEL-28 melanoma = test system: SK-MEL-28 melanoma
SK-MEL-5 melanoma = test system: SK-MEL-5 melanoma
SK-OV-3 ovarian = test system: SK-OV-3 ovarian
SN12C renal = test system: SN12C renal
SNB-19 CNS = test system: SNB-19 CNS
SNB-75 CNS = test system: SNB-75 CNS
SR leukemia = test system: SR leukemia
T-47D breast = test system: T-47D breast
TK-10 renal = test system: TK-10 renal
U251 glioblastoma = test system: U251 glioblastoma
UACC-257 melanoma = test system: UACC-257 melanoma
UACC-62 melanoma = test system: UACC-62 melanoma

COC(=O)c1ccc2c(c1)nc(NC(=O)c1ccccc1)n2CCCc1ccccc1
GI50 (A498 renal): 2.08 µM
TGI (A498 renal): 15.9 µM
GI50 (A549 NSCLC): 3.61 µM
TGI (A549 NSCLC): > 100 µM
GI50 (ACHN renal): 3.99 µM
TGI (ACHN renal): 31.7 µM
GI50 (BT-549 breast): 0.741 µM
TGI (BT-549 breast): 6.46 µM
GI50 (CAKI-1 renal): 6.36 µM
TGI (CAKI-1 renal): > 100 µM
GI50 (COLO 205 colon): 2.04 µM
TGI (COLO 205 colon): 5.78 µM
GI50 (DU-145 prostate): 1.77 µM
TGI (DU-145 prostate): 24.4 µM
GI50 (EKVX NSCLC): 1.46 µM
TGI (EKVX NSCLC): > 100 µM
GI50 (HCC-2998 colon): 1.85 µM
TGI (HCC-2998 colon): > 100 µM
GI50 (HCT-116 colon): 0.852 µM
TGI (HCT-116 colon): > 100 µM
GI50 (HCT-15 colon): 0.478 µM
TGI (HCT-15 colon): 4 µM
GI50 (HL-60(TB) leukemia): 0.413 µM
TGI (HL-60(TB) leukemia): 1.75 µM
GI50 (HOP-62 NSCLC): 0.469 µM
TGI (HOP-62 NSCLC): 3.55 µM
GI50 (HOP-92 NSCLC): 3.93 µM
TGI (HOP-92 NSCLC): > 100 µM
GI50 (HS 578T breast): 6.95 µM
TGI (HS 578T breast): > 100 µM
GI50 (HT29 colon): 2.72 µM
TGI (HT29 colon): > 100 µM
GI50 (IGROV1 ovarian): 2.04 µM
TGI (IGROV1 ovarian): > 100 µM
GI50 (KM12 colon): 2.33 µM
TGI (KM12 colon): > 100 µM
GI50 (LOX IMVI melanoma): 0.946 µM
TGI (LOX IMVI melanoma): 2.81 µM
GI50 (M14 melanoma): 0.519 µM
TGI (M14 melanoma): 3.05 µM
GI50 (MALME-3M melanoma): 2.9 µM
TGI (MALME-3M melanoma): > 100 µM
GI50 (MCF7 breast): 1.65 µM
TGI (MCF7 breast): > 100 µM
GI50 (MDA-MB-231 breast): 7.06 µM
TGI (MDA-MB-231 breast): > 100 µM
GI50 (MDA-MB-435 melanoma): 4.03 µM
TGI (MDA-MB-435 melanoma): > 100 µM
GI50 (MDA-MB-468 breast): 2.19 µM
TGI (MDA-MB-468 breast): > 100 µM
GI50 (MOLT-4 leukemia): 0.222 µM
TGI (MOLT-4 leukemia): 0.413 µM
GI50 (NCI-H226 lung): 3.41 µM
TGI (NCI-H226 lung): 48.9 µM
GI50 (NCI-H23 lung): 1.86 µM
TGI (NCI-H23 lung): > 100 µM
GI50 (NCI-H322M lung): 0.884 µM
TGI (NCI-H322M lung): 8.59 µM
GI50 (NCI-H460 NSCLC): 0.342 µM
TGI (NCI-H460 NSCLC): 1.14 µM
GI50 (NCI-H522 lung): 1.49 µM
TGI (NCI-H522 lung): 9.61 µM
GI50 (NCI/ADR-RES ovarian): 0.458 µM
TGI (NCI/ADR-RES ovarian): 2.16 µM
GI50 (OVCAR-3 ovarian): 1.84 µM
TGI (OVCAR-3 ovarian): 69.4 µM
GI50 (OVCAR-4 ovarian): 11.5 µM
TGI (OVCAR-4 ovarian): 65.9 µM
GI50 (OVCAR-5 ovarian): 3.94 µM
TGI (OVCAR-5 ovarian): 31.6 µM
GI50 (OVCAR-8 ovarian): 1.58 µM
TGI (OVCAR-8 ovarian): 5.25 µM
GI50 (PC-3 prostate): 4.95 µM
TGI (PC-3 prostate): > 100 µM
GI50 (RPMI-8226 leukemia): 1.5 µM
TGI (RPMI-8226 leukemia): 4.6 µM
GI50 (RXF 393 renal): 3.11 µM
TGI (RXF 393 renal): > 100 µM
GI50 (SF-268 CNS): 1.81 µM
TGI (SF-268 CNS): > 100 µM
GI50 (SF-295 CNS): 3.11 µM
TGI (SF-295 CNS): > 100 µM
GI50 (SF-539 CNS): 2.13 µM
TGI (SF-539 CNS): 18 µM
GI50 (SK-MEL-28 melanoma): 3.12 µM
TGI (SK-MEL-28 melanoma): > 100 µM
GI50 (SK-MEL-5 melanoma): 0.395 µM
TGI (SK-MEL-5 melanoma): 1.67 µM
GI50 (SK-OV-3 ovarian): 0.973 µM
TGI (SK-OV-3 ovarian): > 100 µM
GI50 (SN12C renal): 2.38 µM
TGI (SN12C renal): 8.75 µM
GI50 (SNB-19 CNS): 2.21 µM
TGI (SNB-19 CNS): 20 µM
GI50 (SNB-75 CNS): 3.91 µM
TGI (SNB-75 CNS): 66.8 µM
GI50 (SR leukemia): 0.203 µM
TGI (SR leukemia): 0.44 µM
GI50 (T-47D breast): 4.13 µM
TGI (T-47D breast): > 100 µM
GI50 (TK-10 renal): 2.63 µM
TGI (TK-10 renal): 34.5 µM
GI50 (U251 glioblastoma): 0.673 µM
TGI (U251 glioblastoma): 11.3 µM
GI50 (UACC-257 melanoma): 2.32 µM
TGI (UACC-257 melanoma): 9.95 µM
GI50 (UACC-62 melanoma): 2.45 µM
TGI (UACC-62 melanoma): > 100 µM

Source: PubChem BioAssay (NCI)
